{"source": "paper PMC12645437", "about": "“Orthogonal IMiD-Degron Pairs Induce Selective Protein Degradation in Cells” (ACS Chemical Biology, 2025)", "key": {"[1]": {"molecular_target": "WDIA mutant ZF degron fused to EGFP (Homo sapiens, UniProt Q96SW2+Q9UKT9, N149D/Q147W/Q150I/S154A)", "sequence (Q9UKT9 130-189 Q147W/N149D/Q150I/S154A)": "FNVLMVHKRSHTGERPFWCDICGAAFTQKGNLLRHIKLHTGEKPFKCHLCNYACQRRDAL", "sequence (Q96SW2 whole entry, the tested form may be a part)": "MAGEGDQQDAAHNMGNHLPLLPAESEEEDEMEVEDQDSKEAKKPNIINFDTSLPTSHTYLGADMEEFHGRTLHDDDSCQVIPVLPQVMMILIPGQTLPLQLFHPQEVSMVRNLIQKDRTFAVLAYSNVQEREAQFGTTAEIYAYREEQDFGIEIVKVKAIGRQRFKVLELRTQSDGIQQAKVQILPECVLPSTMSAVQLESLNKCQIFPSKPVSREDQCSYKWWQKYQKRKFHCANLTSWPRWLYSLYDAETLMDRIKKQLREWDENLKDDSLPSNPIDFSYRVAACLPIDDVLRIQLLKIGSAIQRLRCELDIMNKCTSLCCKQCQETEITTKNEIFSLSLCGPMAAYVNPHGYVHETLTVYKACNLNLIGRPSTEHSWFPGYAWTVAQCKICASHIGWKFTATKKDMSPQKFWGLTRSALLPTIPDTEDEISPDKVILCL", "sequence (Q16531 whole entry partner, the tested form may be a part)": "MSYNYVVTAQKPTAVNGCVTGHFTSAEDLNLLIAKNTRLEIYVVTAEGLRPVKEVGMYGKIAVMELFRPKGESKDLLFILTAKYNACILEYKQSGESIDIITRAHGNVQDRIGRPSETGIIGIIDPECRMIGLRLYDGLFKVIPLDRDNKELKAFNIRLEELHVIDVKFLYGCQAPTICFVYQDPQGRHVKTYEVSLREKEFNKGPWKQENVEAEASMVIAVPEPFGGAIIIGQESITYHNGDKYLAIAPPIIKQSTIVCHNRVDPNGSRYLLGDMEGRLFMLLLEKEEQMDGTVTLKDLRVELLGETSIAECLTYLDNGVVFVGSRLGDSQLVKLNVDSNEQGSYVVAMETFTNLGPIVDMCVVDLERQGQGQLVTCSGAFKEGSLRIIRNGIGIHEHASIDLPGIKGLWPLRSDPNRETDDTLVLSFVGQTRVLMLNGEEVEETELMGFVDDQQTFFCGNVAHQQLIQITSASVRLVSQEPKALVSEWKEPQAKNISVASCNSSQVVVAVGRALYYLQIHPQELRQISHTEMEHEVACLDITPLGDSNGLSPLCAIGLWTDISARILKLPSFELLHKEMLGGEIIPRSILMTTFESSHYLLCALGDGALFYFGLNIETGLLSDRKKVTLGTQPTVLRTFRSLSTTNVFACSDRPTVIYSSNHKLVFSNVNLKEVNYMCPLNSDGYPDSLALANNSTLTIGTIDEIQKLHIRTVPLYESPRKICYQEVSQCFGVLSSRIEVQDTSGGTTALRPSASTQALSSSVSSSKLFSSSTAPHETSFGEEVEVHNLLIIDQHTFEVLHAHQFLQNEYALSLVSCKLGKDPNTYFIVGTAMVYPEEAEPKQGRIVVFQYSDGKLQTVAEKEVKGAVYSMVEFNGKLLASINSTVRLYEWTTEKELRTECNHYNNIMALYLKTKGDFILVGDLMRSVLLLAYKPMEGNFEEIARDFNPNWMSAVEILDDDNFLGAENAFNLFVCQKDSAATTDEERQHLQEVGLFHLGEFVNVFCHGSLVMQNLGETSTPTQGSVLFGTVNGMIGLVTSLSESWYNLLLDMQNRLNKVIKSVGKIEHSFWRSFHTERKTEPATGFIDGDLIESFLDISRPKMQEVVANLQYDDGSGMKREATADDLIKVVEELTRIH", "assay": "Ratiometric EGFP:mCherry flow cytometry degradation assay, 18 h"}, "HA-HPRT1-WEIS": {"molecular_target": "T1, HA-HPRT1-WEIS (Homo sapiens, UniProt Q96SW2+Q9UKT9, N149E/Q147W/Q150I)", "T1 construct": "IKZF3 130aa-142aa 170-189aa fused to EGFP; HPRT1 (protein of interest, fusion partner N-terminal of the degron); expressed in transfected cells; host or cells: HEK293T, lentivirally transduced (Cilantro2-derived plasmid, Addgene #74450, EGFP replaced by HA-POI-WEIS)", "T1 sequence (Q9UKT9 130-189 Q147W/N149E/Q150I)": "as the sequence (Q9UKT9 130-189 Q147W/N149D/Q150I/S154A) above, with D20E, A25S counted along it", "T1 sequence (Q96SW2 whole entry, the tested form may be a part)": "as the sequence (Q96SW2 whole entry, the tested form may be a part) above", "assay": "HA antibody immunoblotting in HEK293T cells", "format": "cell-based", "conditions": "18 h, Western blot"}, "Jurkat cells": {"tested_on": "Jurkat cells", "assay": "Compound cellular stability HPLC assay", "format": "in vitro ADME, human", "conditions": "25 μM", "description": "We hypothesized that the time-dependent variation in DC50 values for compound 23 might result from instability in the cellular environment or export from the cells, leading to a lower cellular concentration after the 24 h period. To assess its cellular stability, we incubated Jurkat cells with 25 μM of compound 23 and analyzed how much compound was recovered from the cells after 0.5, 6, and 24 h (Figure S21) using HPLC analysis. […] The data also indicate that compound 23 is being metabolized, transported out of the cells, or both, over a 24 h period, explaining the increase in DC50 value by this time point (Figure G,H).\nFigure S21. Assessing crude cellular stability of compound in 23 in mammalian cells using HPLC.\nJurkat cells were incubated with 25 µM of compound 23 for 0.5 h, 6 h, or 24 h. Cells were washed\nwith PBS and lysed with MeOH, clarified, and analyzed by HPLC. Compound 23 presence in the\nlysate was assessed using HPLC at a UV/Vis absorbance of 190 nm. After 0.5 h we observed 130\nincubating at rt for 3 minutes, then reading using an EnVision multimode plate reader\n(PerkinElmer). The data have been expressed as % of DMSO control. Three biological repeats\nwere carried out for this assay, with each biological replicate plate comprising three replicate\nCompound Cellular Stability HPLC Assay\nAnalytical HPLC assay to identify compound 23 in mammalian cell lysate. Jurkat cells were\ncultured as described previously and seeded at a density of 2.5 × 10^5 cells per well in a 6-well\nplate. Cells were treated with 25 µM of compound 23 or DMSO, keeping the final concentration\neither 0.5 h, 6 h, or 24 h. Cells were then pelleted, supernatant removed, and cells were washed\ntwice with 1 mL of PBS, centrifuging each time at 6,500 rpm on a tabletop centrifuge to avoid\nprematurely lysing the cells. PBS was then removed, and cells were lysed with 100 µL of HPLC- […]\n0.1% formic acid. […] Samples were read using a Shimadzu system […]\nprocessed using LabSolutions (Version 5.117). Sample components were measured using the UV\nabsorbance at 190 nm and 254 nm. The reported analysis is the UV absorbance at 190 nm. […]"}, "HA-NanoLuc-WEIS": {"molecular_target": "T2, HA-NanoLuc-WEIS (Homo sapiens, UniProt Q96SW2+Q9UKT9, N149E/Q147W/Q150I)", "T2 construct": "pLVX-Sprout-IKZF3 130-189aa Q147W N149E Q150I (WEIS); expressed in transfected cells; host or cells: HEK293T, lentiviral transduction, puromycin-selected", "T2 sequence (Q9UKT9 130-189 Q147W/N149E/Q150I)": "as the sequence (Q9UKT9 130-189 Q147W/N149D/Q150I/S154A) above, with D20E, A25S counted along it", "T2 sequence (Q96SW2 whole entry)": "as the sequence (Q96SW2 whole entry, the tested form may be a part) above", "T2 sequence (Q16531 whole entry partner)": "as the sequence (Q16531 whole entry partner, the tested form may be a part) above", "assay": "HA antibody immunoblotting in HEK293T cells", "format": "cell-based", "conditions": "18 h, Western blot"}}}
{"smiles": "CN1CCN(c2ccc3c(c2)C(=O)N(C2CCC(=O)NC2=O)C3=O)CC1", "note": "(stereo not shown) [Compound 23]", "values": [{"measurement": "Selectivity (WT/mutant)", "setting": "[1]; DC50(WT)/DC50(WDIA)", "result": 22.0}, {"measurement": "DC50", "setting": "[1]; WDIA, Jurkat, 18 h", "result": 28.8, "unit": "nM"}, {"measurement": "pDC50", "setting": "[1]; WDIA, Jurkat, 18 h", "result": 7.54}, {"measurement": "D max", "setting": "HA-HPRT1-WEIS", "result": 49, "unit": "%"}, {"measurement": "DC50", "setting": "HA-HPRT1-WEIS", "result": 67.1, "unit": "nM"}, {"measurement": "compound recovered from cells (HPLC)", "setting": "Jurkat cells; after 0.5 h", "result": 130, "unit": "nM"}, {"measurement": "compound recovered from cells (HPLC)", "setting": "Jurkat cells; after 6 h", "result": 30, "unit": "nM"}, {"measurement": "compound recovered from cells (HPLC)", "setting": "Jurkat cells; after 24 h", "result": "almost no compound remaining"}, {"measurement": "D max", "setting": "HA-NanoLuc-WEIS", "result": 89, "unit": "%"}, {"measurement": "DC50", "setting": "HA-NanoLuc-WEIS", "result": 47.8, "unit": "nM"}]}
